Legend:
Lxrα = target: T1, Lxrα (Homo sapiens, UniProt Q13133); assay: Lxrα luciferase reporter assay in SN4741 neural cells; assay type: cell-based, mouse; details: for Lxrα activation, luciferase activity (fold activation): 10 μM, 24 h
T1 construct: expressed in transfected cells; host or cells: SN4741 mouse neuronal cell line
T1 sequence (Q13133 1-447): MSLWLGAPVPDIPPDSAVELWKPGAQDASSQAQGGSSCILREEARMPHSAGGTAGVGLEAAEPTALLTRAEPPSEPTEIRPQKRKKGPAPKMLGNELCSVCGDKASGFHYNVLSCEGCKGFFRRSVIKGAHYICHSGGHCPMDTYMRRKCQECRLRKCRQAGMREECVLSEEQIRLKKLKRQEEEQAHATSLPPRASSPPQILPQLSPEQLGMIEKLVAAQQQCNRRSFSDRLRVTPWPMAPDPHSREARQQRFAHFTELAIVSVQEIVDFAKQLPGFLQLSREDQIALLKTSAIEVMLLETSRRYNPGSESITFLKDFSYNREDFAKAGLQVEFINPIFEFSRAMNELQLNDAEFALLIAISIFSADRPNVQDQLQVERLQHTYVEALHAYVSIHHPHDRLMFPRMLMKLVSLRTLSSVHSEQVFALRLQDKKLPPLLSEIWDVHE
Text: (§1) Luciferase Reporter Assay.

Lxrβ = target: T2, Lxrβ (Homo sapiens, UniProt P55055); assay: Lxrβ luciferase reporter assay in SN4741 neural cells; assay type: cell-based, mouse; details: SN4741 cells, 10 μM, 24 h
T2 construct: expressed in transfected cells; host or cells: SN4741 mouse neuronal cell line
T2 sequence (P55055 1-460): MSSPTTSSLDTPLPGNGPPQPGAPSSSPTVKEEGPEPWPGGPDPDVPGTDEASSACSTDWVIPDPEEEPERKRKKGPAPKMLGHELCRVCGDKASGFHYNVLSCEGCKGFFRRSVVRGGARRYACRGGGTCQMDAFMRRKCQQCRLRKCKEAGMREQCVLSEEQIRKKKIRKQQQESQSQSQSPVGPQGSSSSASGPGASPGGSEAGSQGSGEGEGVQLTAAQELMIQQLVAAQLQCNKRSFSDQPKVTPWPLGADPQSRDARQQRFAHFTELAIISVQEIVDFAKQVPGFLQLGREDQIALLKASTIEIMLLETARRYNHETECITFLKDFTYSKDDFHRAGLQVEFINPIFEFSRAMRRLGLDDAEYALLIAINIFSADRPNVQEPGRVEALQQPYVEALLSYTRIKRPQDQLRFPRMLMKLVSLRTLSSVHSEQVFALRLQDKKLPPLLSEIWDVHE
Text: as §1

zebrafish embryos = assay: Survival of transgenic zebrafish embryos on compound exposure; assay type: in vivo
Method: (§2) Zebrafish Strain and Maintenance Zebrafish were raised on a 14/10 h day/night cycle and were kept at 28.5 ° C. Islet-1:GFP transgenic embryos were obtained via natural spawning and staged in hours or days post fertilization (hpf and dpt) according to Kimmel et al). Embryos older than 24 hpf were treated with 0.03% phenylthiourea (PTU) to inhibit pigmentation. MO injections were performed using splice site specific zebrafish lxi MO MO injected embryos were immediately dechorionated and transferred to a 96 well plate and exposed to dimethyl sulfoxide (DMSO) treated or ligand treated medium. Compound Exposure. Islet-1:GFP embryos were collected by natural mating and immediately (at 1 cell stage) dechorionated and transferred to a 96 well plate. Each of the compounds tested were obtained as 10 mM stock and diluted in embryo medium to a final concentration of 10 μM, and 200 μL was added to each well. DMSO or propan-2-ol treated embryo medium was taken as control. Ligand solutions were replaced every 12 h with fresh ligand solution prepared in PTU treated embryo medium. Embryos were collected at 48 hpf, fixed for 4 h at room temperature with 4% paraformaldehyde and then washed and kept in PBST. Immunocytochemistry was performed using an anti-GFP antibody and fluorescence was viewed and photographed using a Zeiss Axioplan compound microscope and a Zeiss Axiocam digital camera.

[1] = test system: Islet1+ oculomotor neurons; assay: Islet1+ cells in mouse E11.5 brain primary cultures; assay type: cell-based; details: wild type cultures
Method: Primary Brain Cultures. Brains from E11.5 mice were manually dissected, plated on poly-D-lysine (150,000 cells/cm^2) and grown in serum-free N2 media consisting of 1:1 mixture of F12 and DMEM with 10 ng/mL insulin, 100 μg/mL apo-transferrin, 100 μM putrescine, 20 nM progesterone, 30 nM selenium, 6 mg/mL glucose, and 1 mg/mL BSA. Cells were treated for 3 days in vitro (DIV) with the compounds of interest, fixed with 4% PFA and processed for staining using appropriate antibodies.
Antibodies and Detection Procedures. Cells were fixed in 4% PFA, washed in PBS and blocked in 5% normal goat serum/PBS for 1 h at room temperature. Primary antibodies were diluted in PBS (pH 7.4), 0.3% Triton X-100, 1% BSA and incubations were carried out overnight at +4° C. or at room temperature for 2 h. The antibodies used were anti-:BrdU (1:400; Abeam), Islet-1 (1:100: Developmental Studies Hybridoma Bank), cleaved caspase-3 (Aspt 75) (1:100; Cell Signaling Technology), tyrosine hydroxylase (TH; 1:1000; Pel-Freeze) GABA (1:1,000; Sigma), Bm3a (1:250; Millipore), Nkx6.1 (1:200; Novus Biologicals), choline acetyltransferase (ChAT; 1:500; Millipore) and appropriate secondary antibodies (Jackson ImmunoResearch or Alexa). Cells positive for the corresponding marker were counted directly at the microscope at a magnification of 20×. Cells were counted in every well, in eight consecutive fields (going from one side of the well to the other, passing through the center), in three different wells per experiment and in three different experiments per condition. Random pictures of the wells were taken for every condition to document the result, and representative pictures were subsequently selected to represent the quantitative data. Photos were acquired with a Zeiss Axioplan microscope and a Hamamatsu camera C4742-95 using the Openlab software.

Islet-1 = Islet-1 expression in Tg[Isl1:GFP] zebrafish embryos; assay type: in vivo; details: 10 μM, embryos 48 hpf
Method: Quantitative PCR, Total RNA was extracted from SN4741. cells and zebrafish treated with the compounds of interest using the RNeasy Mini Kit (Qiagen), 1 μg was treated with RQ1 RNase-free DNase (Promega) and reverse transcribed using SuperScript II Reverse Transcriptase (invitrogen) and random primers (invitrogen) (RT+reaction). Parallel reactions without reverse transcriptase enzyme were done as a control (RT−reaction), and Sybergreen real-time quantitative PCR assays were performed. Expression levels were obtained by normalization with the Value of the housekeeping gene encoding actin obtained for every sample in parallel assays.
as §2

Row | SMILES | Lxrα activation, luciferase activity (fold activation) (Lxrα) | Lxrβ activation, luciferase activity (fold activation) (Lxrβ) | other results
1 | CC(C)CCC[C@@H](C)[C@H]1CC[C@H]2[C@@H]3C=CC4=CC(=O)CC[C@]4(C)[C@H]3CC[C@]12C [cholesta-4,6-dien-3-one] | None of these compounds showed significant activity | – | –
2 | CC(CCC[C@@H](C)[C@H]1CC[C@H]2[C@@H]3[C@@H](O)CC4=CC(=O)CC[C@]4(C)[C@H]3CC[C@]12C)C(=O)O (stereo partly drawn) [7βH,3O-CA, 7β-hydroxy-3-oxocholest-4-en-26-oic acid] | none of which was found to show significant activity | none of which was found to show significant activity | –
3 | CC(C)CCC[C@@H](C)[C@H]1CC[C@H]2[C@@H]3CC[C@H]4CC(=O)CC[C@]4(C)[C@H]3CC[C@]12C [5α-cholestan-3-one] | None of these compounds showed significant activity | – | –
4 | CC(C)[C@@H](O)CC[C@@H](C)[C@H]1CC[C@H]2[C@@H]3CC=C4C[C@@H](O)CC[C@]4(C)[C@H]3CC[C@]12C [24S-HC, cholest-5-ene-3β,24S-diol] | activate Lxr | activate Lxr | –
5 | CC(C)CCC[C@@H](C)[C@H]1CC[C@H]2[C@@H]3[C@H](O)CC4=CC(=O)CC[C@]4(C)[C@H]3CC[C@]12C [7α-HCO, 7α-Hydroxycholest-4-en-3-one] | None of these compounds showed significant activity | – | –
6 | CC(C)CCC[C@@H](C)[C@H]1CC[C@H]2[C@@H]3[C@H](O)CC4=CC(=O)CC[C@]4(C)[C@H]3C[C@H](O)[C@]12C [7α,12α-diHCO, 7α,12α-Dihydroxycholest-4-en-3-one] | None of these compounds showed significant activity | – | –
7 | CC(C)CCC[C@@H](C)[C@H]1CC[C@H]2[C@@H]3CC[C@H]4C[C@@H](O)CC[C@]4(C)[C@H]3CC[C@]12C [5α-cholestan-3β-ol] | None of these compounds showed significant activity | – | –
8 | C[C@H](CCC(=O)O)[C@H]1CC[C@H]2[C@@H]3[C@H](O)C[C@@H]4C[C@H](O)CC[C@]4(C)[C@H]3CC[C@]12C [CDCA, chenodeoxycholic acid, reference compound] | – | – | Toxic effect on survival of the fish (zebrafish embryos): had a deleterious toxic effect which impaired the survival of the fish
9 | C[C@@H](CO)CCC[C@@H](C)[C@H]1CC[C@H]2[C@@H]3CC=C4C[C@@H](O)CC[C@]4(C)[C@H]3CC[C@]12C [26-HC, cholest-(25R)-5-en-3β,26-diol] | had no a significant effect | had no a significant effect | Number of Islet1+ cells [1]: no effect on the number of Islet1+ cells
10 | CC(CO)CCC[C@@H](C)[C@H]1CC[C@H]2[C@@H]3[C@H](O)C=C4C[C@@H](O)CC[C@]4(C)[C@H]3CC[C@]12C (stereo partly drawn) [7α,26-diHC, 7α,26-dihydroxycholesterol] | none of which was found to show significant activity | none of which was found to show significant activity | –
11 | CC(CCC[C@@H](C)[C@H]1CC[C@H]2[C@@H]3[C@H](O)CC4=CC(=O)CC[C@]4(C)[C@H]3CC[C@]12C)C(=O)O (stereo partly drawn) [7αH,3O-CA, 7α-hydroxy-3-oxocholest-4-en-26-oic acid] | none of which was found to show significant activity | none of which was found to show significant activity | Islet-GFP expression (Islet-1): failed to regulate Islet-GFP expression
12 | CC(CO)CCC[C@@H](C)[C@H]1CC[C@H]2[C@@H]3[C@H](O)CC4=CC(=O)CC[C@]4(C)[C@H]3CC[C@]12C (stereo partly drawn) [7α,26-diHCO, 7α,26-dihydroxycholest-4-en-3-one] | none of which was found to show significant activity | none of which was found to show significant activity | –
13 | CC(C)CCC[C@@H](C)[C@H]1CC[C@H]2[C@@H]3CCC4=CC(=O)CC[C@]4(C)[C@H]3CC[C@]12C [cholest-4-en-3-one] | None of these compounds showed significant activity | – | –
14 | CC(C)CC[C@@H](O)[C@@H](C)[C@H]1CC[C@H]2[C@@H]3CC=C4C[C@@H](O)CC[C@]4(C)[C@H]3CC[C@]12C [22R-HC, 22R-hydroxycholesterol, reference compound] | – | – | Lxr luciferase activity with addition of the Lxr antagonist GGPP (Lxrα; 10 μM metabolite + 10 μM GGPP): similarly blocked; Number of Islet1+ cells [1]: does not show an effect towards Islet1+ cells

Source: patent US20190201419A1, “COMPOUND AND METHOD FOR THE TREATMENT AND DIAGNOSIS OF NEURODEGENERATIVE CONDITIONS” (Swansea University, priority 2013, published 2019)
